Measurements from patent US20080260833A1, “Drug delivery vehicle containing vesicles in a hydrogel base” (priority 2007, published 2008).
Structures can show the parent of a compound that is named as a salt.

What was measured:
Type in all cases: physicochemical
[1] = Release of free lidocaine from the PVA-acrylamide hydrogel (Example 2); settings: in 8 hours; 3 g UV-crosslinked hydrogel in 5 ml buffer; UV at 263 nm
Procedure: (§1) The hydrogel matrix is the same as Example 1.
(§2) The vesicles are loaded with lidocaine HCl, via a phase transfer method from chloroform to water, and cleaned over a Sepharose column. The resulting vesicles formulation is mixed with the PVA-acrylamide macromer and Irgacure 2959.3 g of the hydrogel is crosslinked with UV and immersed in 5 ml buffer solution at pH 4. The 5 ml buffer is exchanged after 8-16 h with 5 ml buffer solution at 0.5 pH units higher and left for another 8-16 h. This is repeated until pH 6.5 is reached. About 80% of free lidocaine is released from the hydrogel in 8 hours. The lidocaine HCl release is measured with UV at 263 nm and compared to a standard curve.

[2] = Release from vesicles crosslinked into the hydrogel (Example 5); settings: buffer pH 6.5, 50 C for 24 hours or taken out of solution over night
Text: Vesicles are made from the block copolymer HO-poly(2-methyl-2-oxazoline)-b-polydimethylsiloxane-b-poly(2-methyl-2-oxazoline)-OH modified with isocyanto-ethylmetacrylate at the OH endgroups as taught in U.S. Pat. No. 5,807,944 to Hirt et al.
The hydrogel matrix is made as described in Example 1.
The vesicles are loaded with a hydrophilic lidocaine HCl and cleaned over a Sepharose column as taught above. The resulting vesicles formulation is mixed with the PVA-acrylamide macromer and Irgacure 2959.3 times 3 g of the hydrogel is crosslinked with UV and immersed in 10 ml buffer solution at pH 6.5 each. One sample is exposed to 50 C for 24 hours and left for another 24 hours. One sample is taken out of solution over night and put back into the buffer for 24 hours. Solutions are analyzed with UV for the lidocaine release and compared to the untreated solution.

[3] = Release from temperature sensitive vesicles in hydrogel (Example 4); settings: cooled from 40 C to room temperature, 10 ml water, 12 hours
Procedure: The vesicles are loaded with lidocaine HCl in a buffered solution at pH 6.5 above 40 C and cleaned over a Sepharose column. The resulting vesicles are mixed into 3 g of hydrogel at a solid content of 7% at 40 C. The hydrogel is cooled to room temperature and immersed in 10 ml of water. […] The release is measured with UV at 263 nm over 12 hours.

[4] = Release from pH responsive vesicles in hydrogel (Example 2); settings: poly(2-vinylpyridine-b-ethylene oxide) vesicles in hydrogel; buffer pH 4 to 6.5 in 0.5 pH steps
Text: The vesicles are made from the block copolymer poly(2-vinylpyridine-b-ethylene oxide) (NP2VP:29,NPEO: 15) This polymer can be made as described in Foerster et al., Langmuir, 2006, 22, 5843-5847.
as §1, §2

[5] = Passive diffusion from vesicles and hydrogel matrix (Example 1); settings: PMOXA-b-PDMS-b-PMOXA vesicles in PVA-acrylamide hydrogel; water
Procedure: Vesicles are made out of the block copolymer poly(2-methyl-2-oxazoline)-b-polydimethylsiloxane-b-poly(2-methyl-2-oxazoline). Molecular weights of the segments are poly(2-methyl-2-oxazoline): 1300, and PDMS segment: 4400. The copolymer is made as described in U.S. Pat. No. 5,807,944 to Hirt et al.
A total of 50 mg of polymer was dissolved in 250 μl of ethanol (99%). The ethanolic solution was slowly added to 5 ml of bi-distilled water containing 0.2 M carboxy-fluorescein. A minimum of 4 h of stirring was allowed. Subsequently, the vesicles were extruded through 0.45 μm and 0.22 μm filters (Millex Durapore-PVDF, Millipore) 6 times. This procedure ensures formation of unilamellar vesicles with diameters dictated by the pore size of the extrusion filters and with a more monodisperse size distribution. Chromatographic separation was achieved on a Sepharose 4B column (1×30 cm) eluted with bi-distilled water. The slightly hazy fraction contains the vesicles.
The hydrogel matrix is based on a PVA-acrylamide macromer and a UV-initiator as taught by U.S. Pat. No. 7,070,809 to Goupil et al., Example 5a. […]
3 g of the vehicle are immersed in 5 ml of water. The water is exchanged every hour for the first 8 hours and every 24 hours thereafter and the fluorescence of the supernatant is measured in order to calculate the amount of carboxy-fluorescein released from the vehicle.

Compound	free lidocaine released from the hydrogel [1]	lidocaine release after shape change of the hydrogel [2]	release of vesicle content at room temperature [3]	lidocaine HCl release out of the vesicles in response to a change in pH [4]	passive release of active agent out of the vesicles and hydrogel matrix [5]
CCN(CC)CC(=O)Nc1c(C)cccc1C [lidocaine HCl]	About 80%	ruptured the vesicles and their content is released	release their content slowly	released slowly with increasing pH, with an increased rate after pH 5	
Carboxy-fluorescein					slowly diffuse out of the vesicles and then be released from the hydrogel
